# Source: patent US20250388602A1 (Genase Therapeutics B.V., priority 2022, published 2025)
# pIC50: −log10 of the molar value.
# Biological target: recombinant human DHODH (Homo sapiens (Human), UniProt Q02127)
# Assay: DHODH enzyme assay (Assay A), DCIP absorbance
# Type: biochemical
# Settings: bins ≥10 nM-<100 nM and <10 nM; read-out: IC50 DHODH inhibition activity
# Sequence of recombinant human DHODH (Q02127 whole entry): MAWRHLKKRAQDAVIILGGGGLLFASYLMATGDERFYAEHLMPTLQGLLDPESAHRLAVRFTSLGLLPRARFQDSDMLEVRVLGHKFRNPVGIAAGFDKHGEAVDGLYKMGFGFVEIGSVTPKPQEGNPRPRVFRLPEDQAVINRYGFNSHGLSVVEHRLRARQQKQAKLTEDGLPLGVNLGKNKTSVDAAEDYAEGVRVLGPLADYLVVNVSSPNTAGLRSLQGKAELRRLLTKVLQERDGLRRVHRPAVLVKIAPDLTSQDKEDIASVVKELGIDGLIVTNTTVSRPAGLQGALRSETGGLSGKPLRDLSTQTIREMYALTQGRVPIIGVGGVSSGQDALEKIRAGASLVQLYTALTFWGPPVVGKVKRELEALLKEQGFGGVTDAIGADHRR
structure (smiles),measurement,value
"COc1ccc(F)c(-n2ncc3c2COC[C@H]3NC(=O)c2ncn3c2CCCC3)c1Cl (single isomer, unassigned) [Ex-9]",pIC50,> 8.00
